Our source for the IC50 values is US10626112B2, “Heterocyclic sulfonamide derivative and medicine comprising same” (EA PHARMA CO., LTD., priority 2014, dated 2020).

Sequence of human TRPA1 (O75762 whole entry): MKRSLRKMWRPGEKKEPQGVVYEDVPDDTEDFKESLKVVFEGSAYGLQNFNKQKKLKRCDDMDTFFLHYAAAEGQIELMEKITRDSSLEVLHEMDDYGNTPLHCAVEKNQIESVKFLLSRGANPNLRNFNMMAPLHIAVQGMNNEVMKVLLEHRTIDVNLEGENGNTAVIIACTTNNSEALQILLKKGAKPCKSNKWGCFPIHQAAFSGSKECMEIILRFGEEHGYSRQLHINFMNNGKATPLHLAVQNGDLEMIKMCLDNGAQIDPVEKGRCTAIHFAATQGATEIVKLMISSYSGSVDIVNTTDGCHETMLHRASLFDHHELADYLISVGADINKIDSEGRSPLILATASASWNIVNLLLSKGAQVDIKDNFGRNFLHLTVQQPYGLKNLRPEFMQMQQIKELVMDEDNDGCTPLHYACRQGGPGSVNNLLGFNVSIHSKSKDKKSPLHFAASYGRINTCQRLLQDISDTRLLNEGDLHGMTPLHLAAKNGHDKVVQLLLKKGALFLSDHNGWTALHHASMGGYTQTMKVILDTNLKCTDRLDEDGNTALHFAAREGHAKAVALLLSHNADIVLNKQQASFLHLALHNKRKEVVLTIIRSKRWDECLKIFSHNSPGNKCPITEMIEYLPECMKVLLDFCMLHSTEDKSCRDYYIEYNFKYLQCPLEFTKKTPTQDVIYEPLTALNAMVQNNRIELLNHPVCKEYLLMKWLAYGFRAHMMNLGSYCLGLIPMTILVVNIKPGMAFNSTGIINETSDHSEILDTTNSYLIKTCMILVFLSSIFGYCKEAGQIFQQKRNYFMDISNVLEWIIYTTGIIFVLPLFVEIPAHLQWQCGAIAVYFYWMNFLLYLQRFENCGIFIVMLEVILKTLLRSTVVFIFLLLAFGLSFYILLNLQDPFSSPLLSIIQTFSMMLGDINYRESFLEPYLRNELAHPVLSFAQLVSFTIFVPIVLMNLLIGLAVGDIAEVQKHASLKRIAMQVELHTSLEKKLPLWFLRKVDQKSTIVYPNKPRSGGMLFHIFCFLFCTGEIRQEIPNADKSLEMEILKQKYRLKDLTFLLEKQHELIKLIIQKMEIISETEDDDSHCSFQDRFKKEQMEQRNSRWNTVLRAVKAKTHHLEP

The target of this assay is human TRPA1 (Homo sapiens (Human), UniProt O75762). As to the kind of experiment: Measurement of TRPA1 antagonist activity (1): intracellular calcium increase. The assay is classed as cell-based. To be noted: 293T cells transfected with human TRPA1 expression plasmid; allylisothiocyanate 20 μM stimulation; intracellular calcium fluorescence; read-out: hTRPA1 IC50. An outline of the steps:
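Calcium-flux readout of TRPA1 block: compound given 10 min before 20 μM (final) allylisothiocyanate, fluorescence tracked 5 min. Cells were 293T transiently expressing human TRPA1, dye-loaded 1 hr in HBSS, 20 mM HEPES, pH 7.2. Inhibition scaled between agonist-only and buffer-only responses; IC50 by sigmoid fitting.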
Background: Calcium flux is commonly read through the fluorescence of an indicator in the cells.
On to `C[C@H](NS(=O)(=O)c1cc2cc(F)ccc2o1)C(=O)NCc1ccc(O)c(-c2cnc(C(F)(F)F)cn2)c1` [Example 254, (2S)-2-[(5-fluorobenzofuran-2-yl)sulfonylamino]-N-[[4-hydroxy-3-[5-(trifluoromethyl)pyrazin-2-yl]phenyl]methyl]propanamide], for which the IC50 (as a rule, the midpoint of a concentration-inhibition curve) was found to be 80 nM. As to `C[C@H](NS(=O)(=O)c1cc2ccccc2o1)C(=O)NCc1cc(-c2ccc(C(F)(F)F)nc2)ccn1` [Example 105, (2S)-2-(benzofuran-2-ylsulfonylamino)-N-[[4-[6-(trifluoromethyl)-3-pyridyl]-2-pyridyl]methyl]propanamide], the IC50 worked out at 68 nM.

On to `O=C(NCc1cccc(OCc2ccc(C(F)(F)F)cc2)c1)[C@@H]1CCN1S(=O)(=O)c1cc2ccccc2o1` [Example 48, (2S)-1-(benzofuran-2-ylsulfonyl)-N-[[3-[[4-(trifluoromethyl)phenyl]methoxy]-phenyl]methyl]azetidine-2-carboxamide], for which the IC50 was found to be 6.9 nM. As for `O=C(NCc1ccnc(-c2cnc(C(F)(F)F)nc2)c1)[C@@H]1CCCN1S(=O)(=O)c1cc2ccccc2o1` [Example 199, (2S)-1-(benzofuran-2-ylsulfonyl)-N-[[2-[2-(trifluoromethyl)pyrimidin-5-yl]-4-pyridyl]methyl]pyrrolidine-2-carboxamide], the figure is 5 nM; as for `N#Cc1ccc(COc2cccc(CNC(=O)[C@@H]3CCCN3S(=O)(=O)c3cc4ccccc4o3)c2)cc1` [Example 1, (2S)-1-(benzofuran-2-ylsulfonyl)-N-[[3-[(4-cyanophenyl)methoxy]phenyl]methyl]pyrrolidine-2-carboxamide], 3 nM. For the compound `N#Cc1ccc(COc2cc(F)cc(CNC(=O)[C@@H]3CCCN3S(=O)(=O)c3cc4cc(F)ccc4o3)c2)cc1` [Example 36, (2S)-N-[[3-[(4-cyanophenyl)methoxy]-5-fluoro-phenyl]methyl]-1-(5-fluorobenzofuran-2-yl)sulfonyl-pyrrolidine-2-carboxamide], the IC50 worked out at 1.5 nM.

As to `O=C(NCc1cccc(OCC2CCOC2)c1)[C@@H]1CCCN1S(=O)(=O)c1cc2cc(F)ccc2o1` (stereo partly drawn) [Example 32, (2S)-1-(5-fluorobenzofuran-2-yl)sulfonyl-N-[[3-(tetrahydrofuran-3-ylmethoxy)phenyl]-methyl]pyrrolidine-2-carboxamide], the IC50 is 31 nM. As to `O=C(NCc1cc(-c2ccc(C(F)(F)F)cn2)cnn1)[C@@H]1CCCN1S(=O)(=O)c1cc2ccccc2o1` [Example 212, (2S)-1-(benzofuran-2-ylsulfonyl)-N-[[5-[5-(trifluoromethyl)-2-pyridyl]pyridazin-3-yl]methyl]pyrrolidine-2-carboxamide], the IC50 worked out at 27 nM. In the case of `C[C@H](NS(=O)(=O)c1cc2cc(F)ccc2o1)C(=O)NCc1ccnc(-c2ccc(C(F)(F)F)cn2)c1` [Example 237, (2S)-2-[(5-fluorobenzofuran-2-yl)sulfonylamino]-N-[[2-[5-(trifluoromethyl)-2-pyridyl]-4-pyridyl]methyl]propanamide], the IC50 was 270 nM. Consider `O=C(NCc1cc(-c2ccc(C(F)(F)F)cc2O)ncn1)[C@@H]1CCCN1S(=O)(=O)c1cc2cc(F)ccc2o1` [Example 289, (2S)-1-(5-fluorobenzofuran-2-yl)sulfonyl-N-[[6-[2-hydroxy-4-(trifluoromethyl)phenyl]pyrimidin-4-yl]methyl]pyrrolidine-2-carboxamide], for which the IC50 came out at 1.4 nM. As for `O=C(NCc1cc(-c2ccc(C(F)(F)F)cc2)ncn1)[C@@H]1CCCN1S(=O)(=O)c1cc2ccccc2o1` [Example 84, (2S)-1-(benzofuran-2-ylsulfonyl)-N-[[6-[4-(trifluoromethyl)phenyl]pyrimidin-4-yl]methyl]pyrrolidine-2-carboxamide], the figure is 1.2 nM; as for `O=C(NCc1cccc(-c2ccc(C(F)(F)F)cn2)c1)[C@@H]1CCCN1S(=O)(=O)c1cc2ccccc2o1` [Example 80, (2S)-1-(benzofuran-2-ylsulfonyl)-N-[[3-[5-(trifluoromethyl)-2-pyridyl]phenyl]methyl]pyrrolidine-2-carboxamide], 1.2 nM. As to `N#Cc1ccc(-c2cc(CNC(=O)[C@@H]3CCCN3S(=O)(=O)c3cc4cc(F)ccc4o3)ccn2)cc1` [Example 132, (2S)-N-[[2-(4-cyanophenyl)-4-pyridyl]methyl]-1-(5-fluorobenzofuran-2-yl)sulfonyl-pyrrolidine-2-carboxamide], the IC50 is 7.6 nM. Regarding `O=C(NCc1cc(-c2ccc(C(F)(F)F)cn2)ccn1)[C@@H]1c2ccccc2CN1S(=O)(=O)c1cc2cc(F)ccc2o1` (racemic) [Example 264, (rac)-2-(5-fluorobenzofuran-2-yl)sulfonyl-N-[[4-[5-(trifluoromethyl)-2-pyridyl]-2-pyridyl]methyl]isoindoline-1-carboxamide], the IC50 was determined as 12 nM. As to `O=C(NCc1ccnc(-c2ccc(C(F)(F)F)cn2)c1)[C@@H]1CCCN1S(=O)(=O)c1cc2ccccc2o1` [Example 178, (2S)-1-(benzofuran-2-ylsulfonyl)-N-[[2-[5-(trifluoromethyl)-2-pyridyl]-4-pyridyl]methyl]pyrrolidine-2-carboxamide], the IC50 turned out to be 46 nM. The same measure for `O=C(NCc1ccnc(-c2ccc(C(F)(F)F)cc2)c1)[C@@H]1CC(F)(F)CN1S(=O)(=O)c1cc2cc(F)ccc2o1` [Example 99, (2S)-4,4-difluoro-1-(5-fluorobenzofuran-2-yl)sulfonyl-N-[[2-[4-(trifluoromethyl)phenyl]-4-pyridyl]methyl]pyrrolidine-2-carboxamide]: 13 nM; for `O=C(NCc1cccc(-c2ccccc2)c1)[C@@H]1CCCN1S(=O)(=O)c1cc2cc(F)ccc2o1` [Example 77, (2S)-1-(5-fluorobenzofuran-2-yl)sulfonyl-N-[(3-phenylphenyl)methyl]pyrrolidine-2-carboxamide]: 15 nM; for `N#Cc1ccc(-c2cccc(CNC(=O)[C@@H]3CCCN3S(=O)(=O)c3cc4cc(F)ccc4o3)n2)cc1` [Example 146, (2S)-N-[[6-(4-cyanophenyl)-2-pyridyl]methyl]-1-(5-fluorobenzofuran-2-yl)sulfonyl-pyrrolidine-2-carboxamide]: 310 nM. For the compound `O=C(NCc1cc(-c2ccc(C(F)(F)F)cn2)c(O)cn1)[C@@H]1CCCN1S(=O)(=O)c1cc2ccccc2o1` [Example 215, (2S)-1-(benzofuran-2-ylsulfonyl)-N-[[5-hydroxy-4-[5-(trifluoromethyl)-2-pyridyl]-2-pyridyl]methyl]pyrrolidine-2-carboxamide], the IC50 worked out at 2.1 nM. As for `O=C(NCc1ccccc1OC(F)(F)F)[C@@H]1CCCN1S(=O)(=O)c1cc2ccccc2o1` [Example 64, (2S)-1-(benzofuran-2-ylsulfonyl)-N-[[2-(trifluoromethoxy)phenyl]methyl]-pyrrolidine-2-carboxamide], the figure is 100 nM. As for `O=C(NCc1ccnc(-c2ccc(C(F)(F)F)cc2O)c1)[C@@H]1CCCN1S(=O)(=O)c1cc2ccccc2o1` [Example 123, (2S)-1-(benzofuran-2-ylsulfonyl)-N-[[2-[2-hydroxy-4-(trifluoromethyl)phenyl]-4-pyridyl]methyl]pyrrolidine-2-carboxamide], the figure is 2.6 nM.
